Data: patent publication US6677311B1, “Inducible HSV-TK in transformed cell populations” (priority 1988, dated 2004)
Where “and” joins values, the source holds several entries; their conditions need not be identical. Equal values may be shown once.

What was measured:
[1] = system: thymus, spleen, bone marrow and mesenteric lymph nodes
Excerpt: The pathologic effect of GCV treatment was further evaluated by histological analysis.

B and T lymphocytes = experiment: Flow cytometry of B and T lymphocytes after GCV treatment; format: in vivo, mouse
Excerpt: Although the pattern of toxicity was clearly lymphoid-specific, it was not possible to evaluate the impact of GCV treatment on subpopulations of B and T cells by visual inspection. Flow cytometry was employed to analyze specific populations of B and T lymphocytes in mice subjected to various GCV treatment protocols. B lymphocytes were identified by analyzine for the markers, immunoglobulin and B220, and T lymphocytes were identified by Thy-1. After 7 days of GCV treatment, striking and different effects were observed on B and T lymphocytes in spleens of KHTK mice (FIG. 4). The most dramatic impact was on immunoglobulin and B220-positive B cells, which were reduced by a factor of 20 after GCV treatment. Cells bearing the T-cell surface marker, Thy-1, had decreased to 35% of the PBS group. Thus, although both B and T cells in the periphery were sensitive to the toxic action of GCV, B-cell lineages were more susceptible to ablation.
Mice of transgenic line 552 or nontransgenic littermates were treated with GCV for 5 days. The thymuses of individual mice were assayed by two-color flow cytometry and reported as a percentage of total thymocytes expressing the indicated markers. Data are typical of three experiments.
Mice were treated with GCV for 5 days and then two-color flow cytometry was performed to assess the effect of GCV treatment on double-positive, single-positive, and double-negative populations. In non-transgenic mice, 80% of cells were double-positive, 14% were single-positive, and 5% were double-negative. The composition of cells surviving GCV treatment in transgenic mice was markedly altered from that of the control population. There was a relative depletion by a factor of 4 in the double-positive L3T4^+, Lyt-2^+ population and a 3- to 5-fold increase in single-positive L3T4^+, Lyt-2^− and L3T4^−, Lyt-2^+ cells. There was also an increase in the percentage of cells expressing T-cell receptor complex-associated molecule CD3.ε. […] There was also a 6-fold increase in L3T4^−, Lyt-2^− cells. […] It should be pointed out that, although single-positive and CD3^+ cells are relatively enriched in the thymus of drug-treated animals (i.e., percentage), in terms of absolute cell number all thymic lineages are ablated in drug-treated transgenic animals.

thymocytes = experiment: Recovery of the lymphoid system following GCV treatment; format: in vivo, mouse
Procedure: Recovery of the Lymphoid System following GCV Treatment. One potential advantage of the conditional ablation method is the ability to remove the drug and evaluate the regenerative capabilities of the affected cell lineages. Repopulation of specific thymocyte lineages in KHTK mice was examined by subjecting mice to a severe ablation of lymphoid tissues followed by a recovery period. Accordingly, one group of animals was treated with GCV or PBS for 7 days followed by a 7-day recovery period. All groups were assayed simultaneously for the total number of thymocytes and the presence of specific antigenic markers. Transgenic mice treated with PBS had 1.1×10^8 thymocytes, whereas, after 7 days of GCV treatment, >99% of the thymocyte population was depleted. After 7 days of recovery, the total number of cells increased by 60-fold to nearly 50% of the PBS-treated control group. To characterize specific populations of thymocytes in the depleted and recovery thymus, […] flow cytometry was performed. […] Nontransgenic mice treated with GCV had the same percentage of L3T4^+ and Lyt-2^+ thymocytes as PBS-treated animals.

[2] = system: Abelson leukemia virus induced lymphomas; experiment: Lymphoma response to GCV in HSV-TK transgenic and nontransgenic mice; format: in vivo, mouse
Procedure: Lymphomas were induced by injecting 5 to 6 week old transgenic mice (generated as described in Example III) intravenously with 0.5 ml of cell-free medium from confluent cultures of 1806-6 cells grown in Dulbecco's medium containing 7% calf serum and 7% fetal bovine serum (Green et al., 1987). These cells produce helper-free Abelson leukemia virus, which induces monoclonal lymphomas principally of the fre-B cell type. The virus encodes a transforming protein but is defective and therefore incapable of replicating or of encoding retroviral antigens in the lymphoma cells it helps to generate. Starting 14 days after virus administration, the mice were palpated daily for lymphomas. These were detectable as small, firm, bilateral nodules in the inguinal region, representing enlarged inguinal lymph nodes. In most cases, the presence of the tumors could be suspected 1-2 days preceding a definitive diagnosis, but the latter was made only after daily palpation confirmed the presence and the growing nature of the enlarged nodes. In the litters used, more than 90% of the injected mice developed lymphomas.
In initial experiments, several transgenic mice were treated with GCV for 5 days (10 doses) without precautions against infection, based on dose schedules previously found to be well tolerated in nontransgenic mice [Moolten, Cancer Res. 46:5276-5281 (1986)]. […] Presuming these deaths to be due to infections consequent to the lymphoid depletion, we limited the GCV therapy to five doses for the subsequent trials reported below and instituted the short-term infection control regimen detailed above, which entailed the use of sterile cages and sterile food and water during a 21-day isolation period. These modifications eliminated all drug-related deaths.
GCV treatment was begun when lymphomas first appeared. […] After it was determined that death inevitably followed these preterminal symptoms, usually within 4 days, were killed animals when the symptoms first appeared rather than utilizing natural death as a survival end point; in the few cases where mice died with large tumors but without preterminal symptoms, the day of natural death was recorded as the end point. This practice introduced about 4 days of imprecision into the estimates of median survival but conforms to current humane guidelines [Medical Research Council, UK Coordinating Committee on Cancer Research: guidelines for the welfare of animals in experimental neoplasia (1988); Kallman et al., Cancer Res. 45:6541-6544 (1985)]. The transgenic mice and littermates were used from 10 litters born to 6 female line 563 transgenic mice mated to BALB/c males. The other nontransgenic controls listed comprised, in the GCV-treated group, 15 C57B1/6×BALB/c (CB6) mice F1 and F2generations) and 8 CB6F1×BALB/c mice, and in the untreated group 29 CB6 (F1 and F2,5 CB6F1×BALB/c, and 15 BALB/c mice. Since the founder mouse of the 563 line was heterozygous for genes derived from C57B1/6 and BALB/c mice, these additional mice complemented the littermate controls by eliminating the possibility that differences between transgenic mice and their littermates were attributable not to the transgene itself but to some other endogenous gene affecting the behavior of lymphomas that differ between C57B1/6 and BALB/c mice and which by accident of integration site found itself genetically linked to the transgene.

[3] = GCV serum and tissue concentration by miniosmotic pump (HPLC)
Procedure: Transgenic mice from founder line 563 and their non-transgenic litter mates were treated with the nucleoside analog GCV for 1 week by using a miniosmotic pump. […] A separate control group was implanted with a miniosmotic pump containing isotonic phosphate-buffered saline (PBS).

[4] = transgenic line 563, 7 days GCV
[5] = nontransgenic littermates, GCV 5 days
[6] = transgenic line 552, GCV 5 days
[7] = transgenic vs nontransgenic, GCV 5 days
[8] = after 7 days of recovery following 7 days GCV
[9] = HSV-TK transgenics, GCV five doses
[10] = Nontransgenics Line 563 littermates, GCV

## Nc1nc2c(ncn2COC(CO)CO)c(=O)[nH]1 [GCV, 9-[(1,3-dihydroxy-2-propoxy)methyl]guanine]
[1]; GCV-treated transgenic mice
  number of cells in the bone marrow: 15 % of control
  number of cells in the spleen: 15 % of control
  number of cells in the thymus: 2 % of control
[1]; mouse, in vivo
  cell counts of lymphoid tissues vs PBS-treated group: unchanged
  pathology in nontransgenic mice: no apparent pathology
[1]; [4]
  wet weights of lymph nodes: 20 % of control
  wet weights of the spleen and thymus: 15 % of control
[1]; transgenic mice, 7 days GCV
  histology of thymus: atrophied thymus with a virtual complete absence of the cortex and a hypocellular medulla
B and T lymphocytes; KHTK mice, 7 days GCV
  Thy-1 bearing cells in spleen: 35 % of the PBS group
  reduction factor of immunoglobulin and B220-positive B cells in spleen: 20
B and T lymphocytes; non-transgenic mice, GCV 5 days
  single-positive cells: 14%
B and T lymphocytes; [5]
  % thymocytes CD3.ε+: 35%
  % thymocytes L3T4+, Lyt-2+: 80%
  % thymocytes L3T4+, Lyt-2-: 10%
  % thymocytes L3T4-, Lyt-2+: 4%
  % thymocytes L3T4-, Lyt-2-: 5%
  Total cell number (thymus): 6.3 × 10^7
B and T lymphocytes; nontransgenic mice treated with GCV
  profile of antigenic markers: normal
B and T lymphocytes; [6]
  % thymocytes CD3.ε+: 76%
  % thymocytes L3T4+, Lyt-2+: 21%
  % thymocytes L3T4+, Lyt-2-: 27%
  % thymocytes L3T4-, Lyt-2+: 21%
  % thymocytes L3T4-, Lyt-2-: 30%
  Total cell number (thymus): 3.8 × 10^6
B and T lymphocytes; [7]
  increase in L3T4-, Lyt-2- cells: 6 fold
  relative depletion factor of double-positive L3T4+, Lyt-2+ population: 4
thymocytes; [8]
  increase of total number of thymocytes: 60 fold
  total number of thymocytes relative to PBS-treated control group: ~50%
thymocytes; nontransgenic mice, GCV 7 days and recovery
  nonspecific effects on T-cell lineages: no nonspecific effects
thymocytes; transgenic mice, after 7 days of GCV treatment
  thymocyte population depleted: > 99%
[2]; [9]
  Fraction of Mice with complete Regressions: 11 of 12 and 11/12
  Median survival (days) of mice with recurrent or persistent lymphoma: 39 days
  Number remaining recurrence-free for >100 days: 5
[2]; [10]
  Fraction of Mice with complete Regressions: 0/17
  Median survival (days) of mice with recurrent or persistent lymphoma: 13 days
  Number remaining recurrence-free for >100 days: 0
[2]; Other nontransgenics, GCV
  Fraction of Mice with complete Regressions: 0/23
  Median survival (days) of mice with recurrent or persistent lymphoma: 8 days
  Number remaining recurrence-free for >100 days: 0
[2]; three transgenic mice, GCV five doses
  survival of mice with late recurrences: 47 days and 63 days and 90 days
[2]; transgenic mice, GCV 5 days (10 doses), no precautions against infection
  tumor response: regressed and became undetectable after the fifth dose
[2]; transgenic mice, GCV 5 days (10 doses), no precautions against infection, usually during the second week
  outcome of mice: the mice died
[3]; miniosmotic pump, within 24 hr, HPLC
  steady-state serum concentration: 1 to 5 µM
[3]; relative to serum 1-5 μM
  concentration of GCV in all tissues assayed: comparable to this value
